The values that follow come from paper PMC4865820, “Branched Peptide, B2088, Disrupts the Supramolecular Organization of Lipopolysaccharides and Sensitizes the Gram-negative Bacteria” (Scientific Reports, 2016).

Positions of bridges follow the written chain, without caps; N, C: chain ends. Non-standard residues stand in square brackets, D forms with d. Residues, ends and D or L forms follow the SMILES beside them. Chains are numbered I, II in the order given. Bip = N[C@@H](Cc1ccc(-c2ccccc2)cc1)C(=O)O

Assay [1] has as its system P. aeruginosa DR4877/07. Type of assay: cell-based. The conditions noted are these: for Fractional inhibitory concentration of peptide/PMB, combination with Chloarm / Fractional inhibitory concentration of peptide/PMB, combination with Erythro / Fractional inhibitory concentration of peptide/PMB, combination with Levo / Fractional inhibitory concentration of peptide/PMB, combination with Tobra: first number in parenthesis; for Fractional inhibitory concentration of antibiotic, Chloarm combination / Fractional inhibitory concentration of antibiotic, Erythro combination / Fractional inhibitory concentration of antibiotic, Levo combination / Fractional inhibitory concentration of antibiotic, Tobra combination: second number in parenthesis. Summed up: (§1)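 Checkerboard combinations of peptide and antibiotic, each 2-fold diluted up to 1× MIC in MHB, were tested against ~10^6 CFU/ml final inoculum. Plates were incubated 24 h at 37 °C, with growth read at OD600. FICI was the sum of the combination-to-alone MIC ratios for each agent, and the lowest FICI from duplicate experiments was reported.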

For assay [2], the system named is P. aeruginosa ATCC 27853. Type of assay: cell-based. The conditions noted are these: ATCC 27853; for Fractional inhibitory concentration of peptide/PMB, combination with Genta: first number in parenthesis; for Fractional inhibitory concentration of antibiotic, Genta combination: second number in parenthesis. Summed up: as §1
The subject of assay [3] is P. aeruginosa ATCC 27853. Kind of assay: microbe, parasite or virus in culture. Type of assay: cell-based. Conditions: ATCC 27853, 24 h. On the procedure:
(§2) MIC of each peptide was determined using the microdilution method in a 96 well microtitre plates (SPL Life Sciences Co., Ltd, Korea). Two-fold serial dilutions of each peptide in Mueller-Hinton Broth (MHB) was prepared from a 1 mg/ml stock solution of the peptide in the same broth, to obtain a final concentration in the range of 0.0976–50 μg/ml in each well. Bacterial suspensions (P. aeruginosa ATCC 27853, P. aeruginosa 4877, P. aeruginosa 23155, K. pneumoniae ATCC 10031 and K. pneumoniae 4299) were prepared by suspending the overnight cultured bacteria in saline and adjusting the inoculum to ~10^8 colony forming units (CFU) per ml. A further 150-fold dilution was then prepared in MHB to achieve a final cell density of 10^5–10^6 CFU/ml. In each well, 100 μl of inoculum was mixed with the equal volume of peptides at their 2× concentration. Positive and negative controls contained 200 μl of inoculum (without any peptide) and broth alone (no peptide/inoculum) respectively. Another negative control in which MHB containing 200 μl of peptide alone in its highest concentration tested (50 μg/ml) was also included to ensure that the optical density measured in the test wells was not due to turbidity of the peptides in solution. The 96 well polystyrene plates were then incubated at 37 °C for 24 h and the optical density at 600 nm (OD600) was measured every 30 min continuously using a TECAN microplate reader (TECAN Infinite 200, Austria). All the experiments were performed in two independent duplicates and the MIC was determined as the lowest peptide concentration in which no visible growth was observed.

Assay [4] relates to LPS (E. coli serotype 055:B5). Kind of assay: BODIPY TR cadaverine (BC) displacement assay with LPS. Type of assay: binding. Conditions: no unit in table; ED50 values in μM; 5 mM HEPES pH 7.4; duplicates; read-out: BC50 (LPS binding). In a few lines: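 Peptides (0.02–25.6 μM, two-fold dilutions) mixed 1:1 with BODIPY TR cadaverine:LPS (E. coli 055:B5) mixture in 5 mM HEPES pH 7.4; fluorescence at 580/620 nm. Displacement normalized to polymyxin B (Fmax) and probe:LPS alone (F0); ED50 from curve fit, duplicates.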

Assay [5] relates to K. pneumonia 4299. Kind of assay: microbe, parasite or virus in culture. Type of assay: cell-based, K. pneumoniae. The conditions noted are these: 24 h. As to the method: as §2
The test system of assay [6] is P. aeruginosa ATCC 9027. As to the kind of experiment: Outer membrane permeability assay (NPN). Format: cell-based. Conditions: no unit in table; Fig. S5 axis [Peptide], μM; 10 μM NPN, 5 mM HEPES pH 7.4, ex 355/em 405 nm; average of two titrations; read-out: PC50 (peptide concentration for half-maximal NPN intensity, OM permeability). As to the method:
The ability of each peptide to permeabilize the OM of Gram-negative organisms was determined using the hydrophobic fluorescent probe 1-N-phenylnaphthylamine (NPN) as previously reported. P. aeruginosa ATCC 9027 cells from an overnight MHB culture were harvested after centrifuging at 3000 rpm for 10 minutes. The pellet was washed twice, suspended in 5 mM HEPES (N- 2-hydroxyethylpiperazine-N’-2 ethanesulfonic acid) buffer (pH 7.4) and adjusted to an OD600 of 0.200. A suspension containing 600 μl of bacteria cells and 1 μl of a concentrated stock solution of NPN was mixed into a 10 mm stirred quartz cuvette so that the final concentration of the probe remained 10 μM. Aliquots containing 1 μl of each peptide in various concentrations (100, 50, 25, 15, 10, 5, 2.5 and 1 μg/ml) were added upon NPN dye stabilization. The fluorescence intensity was monitored using a Quanta Master spectrophotometer with a constant slit width of 0.5 nm, excitation and emission wavelengths set at 355 nm and 405 nm respectively. The peptide concentration required for half-maximal intensity (PC50) was determined by sigmoidal curve fitting using Graphpad Prism software. The experimental data is average of two independent titration experiments.

For assay [7], the system named is P. aeruginosa 23155. Format: cell-based. The conditions noted are these: 23155, 24 h. On the procedure:
as §2

The test system of assay [8] is K. pneumoniae ATCC10031. Format: cell-based. Conditions: ATCC10031, 24 h. On the procedure: as §2

For `N=C(N)NCCC[C@H](NC(=O)CNC(=O)[C@@H](N)CCCNC(=N)N)C(=O)N[C@@H](CCCCN)C(=O)N[C@@H](Cc1ccc(O)cc1)C(=O)N[C@@H](Cc1ccc(O)cc1)C(=O)N[C@@H](CCCNC(=N)N)C(=O)N[C@@H](CCCNC(=N)N)C(=O)NCCCC[C@H](NC(=O)[C@H](CCCNC(=N)N)NC(=O)[C@H](CCCNC(=N)N)NC(=O)[C@H](Cc1ccc(O)cc1)NC(=O)[C@H](Cc1ccc(O)cc1)NC(=O)[C@H](CCCCN)NC(=O)[C@H](CCCNC(=N)N)NC(=O)CNC(=O)[C@@H](N)CCCNC(=N)N)C(=O)N[C@@H](CCCCN)C(=O)O` (I: H-RGRKYYRRKK-OH / II: H-RGRKYYRR; amide I:9-II:C; N-terminus and C-terminus assumed), in assay [1], the “Fractional inhibitory concentration of peptide/PMB, combination with Chloarm” value came to 0.25; the “Fractional inhibitory concentration of peptide/PMB, combination with Erythro” value amounted to 0.5; the “Fractional inhibitory concentration of peptide/PMB, combination with Levo” value came out at 0.5; the “Fractional inhibitory concentration of peptide/PMB, combination with Tobra” value is listed as 0.25. Further, in assay [1], the “Fractional inhibitory concentration of antibiotic, Chloarm combination” value amounted to 0.13; the “Fractional inhibitory concentration of antibiotic, Erythro combination” value is 0.06; the “Fractional inhibitory concentration of antibiotic, Levo combination” value turned out to be 0.25; the “Fractional inhibitory concentration of antibiotic, Tobra combination” value was 0.13. Moreover, in assay [2], the “Fractional inhibitory concentration of peptide/PMB, combination with Genta” value was “(0.25,0.25)” and the “Fractional inhibitory concentration of antibiotic, Genta combination” value is “(0.25,0.25)”. Moreover, the “Minimum Inhibitory Concentration against P. aeruginosa ATCC 27853” value in assay [3] was 4.5 µM. Further, in assay [4], the EC50 amounted to 2.5 ± 0.04 µM. For the same compound, the “Minimum Inhibitory Concentration against K. pneumonia 4299” value in assay [5] turned out to be 9.0 µM. Besides, the EC50 in assay [6] stood at 21.9 ± 0.2 µM. For the same compound, in assay [7], the “Minimum Inhibitory Concentration against P. aeruginosa 23155” value was 4.5 µM. The “Minimum Inhibitory Concentration against K. pneumoniae ATCC10031” value in assay [8] came out at 4.5 µM.
In the case of `N=C(N)NCCC[C@H](NC(=O)CNC(=O)[C@@H](N)CCCNC(=N)N)C(=O)N[C@@H](CCCCN)C(=O)N[C@@H](Cc1ccccc1)C(=O)N[C@@H](Cc1ccccc1)C(=O)N[C@@H](CCCNC(=N)N)C(=O)N[C@@H](CCCNC(=N)N)C(=O)NCCCC[C@H](NC(=O)[C@H](CCCNC(=N)N)NC(=O)[C@H](CCCNC(=N)N)NC(=O)[C@H](Cc1ccccc1)NC(=O)[C@H](Cc1ccccc1)NC(=O)[C@H](CCCCN)NC(=O)[C@H](CCCNC(=N)N)NC(=O)CNC(=O)[C@@H](N)CCCNC(=N)N)C(=O)N[C@@H](CCCCN)C(=O)O` (I: H-RGRKFFRRKK-OH / II: H-RGRKFFRR; amide I:9-II:C; N-terminus and C-terminus assumed), in assay [1], the “Fractional inhibitory concentration of peptide/PMB, combination with Chloarm” value is on record as 0.25; the “Fractional inhibitory concentration of peptide/PMB, combination with Erythro” value is reported as “(0.5,0.5)”; the “Fractional inhibitory concentration of peptide/PMB, combination with Levo” value is given as “(0.5,0.5)”; the “Fractional inhibitory concentration of peptide/PMB, combination with Tobra” value amounted to 0.25. In assay [1], the “Fractional inhibitory concentration of antibiotic, Chloarm combination” value is reported as 0.13; the “Fractional inhibitory concentration of antibiotic, Erythro combination” value was “(0.5,0.5)”; the “Fractional inhibitory concentration of antibiotic, Levo combination” value is on record as “(0.5,0.5)”; the “Fractional inhibitory concentration of antibiotic, Tobra combination” value was 0.06. In assay [2], the “Fractional inhibitory concentration of peptide/PMB, combination with Genta” value was “(0.25,0.25)” and the “Fractional inhibitory concentration of antibiotic, Genta combination” value is “(0.25,0.25)”. Further, the “Minimum Inhibitory Concentration against P. aeruginosa ATCC 27853” value in assay [3] is 5.0 µM. Also, the EC50 in assay [4] was found to be 0.93 ± 0.01 µM. The “Minimum Inhibitory Concentration against K. pneumonia 4299” value in assay [5] was found to be 10.1 µM. Further, the EC50 in assay [6] came to 10 ± 0.3 µM. Besides, the “Minimum Inhibitory Concentration against P. aeruginosa 23155” value in assay [7] came to 5.0 µM. The “Minimum Inhibitory Concentration against K. pneumoniae ATCC10031” value in assay [8] was 5.0 µM.
As to `N=C(N)NCCC[C@H](NC(=O)CNC(=O)[C@@H](N)CCCNC(=N)N)C(=O)N[C@@H](CCCCN)C(=O)N[C@@H](Cc1ccc(-c2ccccc2)cc1)C(=O)N[C@@H](Cc1ccc(-c2ccccc2)cc1)C(=O)N[C@@H](CCCNC(=N)N)C(=O)N[C@@H](CCCNC(=N)N)C(=O)NCCCC[C@H](NC(=O)[C@H](CCCNC(=N)N)NC(=O)[C@H](CCCNC(=N)N)NC(=O)[C@H](Cc1ccc(-c2ccccc2)cc1)NC(=O)[C@H](Cc1ccc(-c2ccccc2)cc1)NC(=O)[C@H](CCCCN)NC(=O)[C@H](CCCNC(=N)N)NC(=O)CNC(=O)[C@@H](N)CCCNC(=N)N)C(=O)N[C@@H](CCCCN)C(=O)O` [(RGRKFbiFbiRR)2KK] (I: H-RGRK[Bip][Bip]RRKK-OH / II: H-RGRK[Bip][Bip]RR; amide I:9-II:C; N-terminus and C-terminus assumed), in assay [1], the “Fractional inhibitory concentration of peptide/PMB, combination with Chloarm” value is given as 0.5; the “Fractional inhibitory concentration of peptide/PMB, combination with Erythro” value was “(0.5,0.5)”; the “Fractional inhibitory concentration of peptide/PMB, combination with Levo” value was “(0.5,0.5)”; the “Fractional inhibitory concentration of peptide/PMB, combination with Tobra” value is on record as “(0.25,0.25)”. Besides, in assay [1], the “Fractional inhibitory concentration of antibiotic, Chloarm combination” value is on record as 0.06; the “Fractional inhibitory concentration of antibiotic, Erythro combination” value is on record as “(0.5,0.5)”; the “Fractional inhibitory concentration of antibiotic, Levo combination” value is on record as “(0.5,0.5)”; the “Fractional inhibitory concentration of antibiotic, Tobra combination” value was “(0.25,0.25)”. Further, in assay [2], the “Fractional inhibitory concentration of peptide/PMB, combination with Genta” value came out at 0.5 and the “Fractional inhibitory concentration of antibiotic, Genta combination” value is 0.06. The “Minimum Inhibitory Concentration against P. aeruginosa ATCC 27853” value in assay [3] turned out to be 9.8 µM. The EC50 in assay [4] was determined as 2.33 ± 0.06 µM. For the same compound, the “Minimum Inhibitory Concentration against K. pneumonia 4299” value in assay [5] came to 19.6 µM. The EC50 in assay [6] is 22.2 ± 1.6 µM. Also, the “Minimum Inhibitory Concentration against P. aeruginosa 23155” value in assay [7] was 4.9 µM. Further, the “Minimum Inhibitory Concentration against K. pneumoniae ATCC10031” value in assay [8] came to 9.8 µM.
